Values of other authors in patent US20180008598A1, “ANTIBACTERIAL NASAL COMPOSITIONS AND RELATED METHODS” (Xlear, Inc., priority 2016, published 2018).

Tests used:
[1] = system: dental caries; details: regular consumption
[2] = system: Streptococcus pneumonia; details: in vitro, during its logarithmic growth phase

For `OC[C@@H](O)[C@H](O)[C@@H](O)CO` [Xylitol, xylitol], the “incidence of dental caries” value [1] is listed as “reduce the incidence of dental caries” and the “growth of Streptococcus pneumonia” value [2] is listed as “inhibit the growth”.
